Assays:
Assay type in all cases: cell-based, bovine
[1] = test system: IL-1β-stimulated chondrocytes; test: IL-1β-stimulated chondrocytes in 3D PEGDA hydrogels: real-time PCR gene expression; conditions: 10 ng/ml IL-1β, 21 days
Experimental: (§1) Cell Isolation and Culturing. Bovine chondrocytes were isolated from 4- to 8-week-old calves (Research 87, Inc., Boylston, Mass.), as previously described. Briefly, cartilage was dissected from the femoral patellar groove and condyles and minced into approximately 1 mm^2 pieces. Cells were isolated from the tissue by digesting overnight at 37° C. with 2 mg/ml type II collagenase (Worthington Biochemical Corp., Lakewood, N.J.), 5% fetal bovine serum (FBS), 100 U/ml penicillin and 100 μg/ml streptomycin on an orbital shaker. The cell suspension was passed through a 70 μm cell strainer, followed by centrifugation. Cells were washed 3 times using sterile phosphate buffered saline (PBS). Chondrocyte medium was composed of high glucose Dulbecco's Modified Eagle's Medium (DMEM) supplemented with 10 mM HEPES, 0.4 mM L-proline, 50 μg/ml ascorbic acid, 10% (v/v) fetal bovine serum (FBS; Hyclone Laboratories, Inc., Logan, Utah), 0.1 mM non-essential amino acids, 100 U/ml penicillin and 100 μg/ml streptomycin.
(§2) Photoencapsulation in Poly(Ethylene Glycol)-Diacrylate (PEGDA) Hydrogels and Construct Culturing. For all 3D culture experiments, cells were photoencapsulated in PEGDA hydrogels, as previously described. Briefly, 100 mg PEGDA (3.4 kDa, SunBio, Anyang City, South Korea) was dissolved in 1 ml sterile PBS. A photoinitiator solution of Irgacure® 2959 (CIBA Specialty Chemicals) was prepared by dissolving 100 mg of Irgacure® 2959 in 1 ml 70% ethanol. Five microliters of the Irgacure® 2959 solution was added to 1 ml of PEGDA solution. Cells were suspended in the hydrogel precursor solution at a density of 20 million cells/ml and polymerized in sterile molds. A high cell density was chosen as it has been shown. Based on our previous studies a high cell density was chosen to best to support a cell phenotype and differentiation and cell phenotype. Polymerization was carried out using UV light (365 nm, 3.2 mW/cm^2) exposure for 5 minutes.
(§3) For chondrocyte experiments, the cell-laden hydrogels were cultured in chondrocyte medium supplemented with 10 ng/ml IL-1β for 3 days. Following the initial 3 days, constructs were cultured with medium containing specific concentrations of hexosamine analog with 10 ng/ml IL-1β for an additional 21 days. The medium was changed 3 times per week.
(§4) RNA Isolation and Real-Time PCR. Total RNA was extracted using TRIzol® reagent (Life Technologies, Grand Island, N.Y.) following the manufacturer's protocol. cDNA was synthesized using Superscript® II reverse transcriptase (Life Technologies, Grand Island, N.Y.) following the manufacturer's protocol. Real-time PCR was carried out using a StepOnePlus™ Real-Time PCR System (Life Technologies, Grand Island, N.Y.). mRNA amounts for bovine primers were calculated using the ΔΔCt method. Relative mRNA quantities for goat primers were calculated using the Pfaffl method.

[2] = test system: IL-1β stimulated chondrocytes; test: Monolayer chondrocytes with IL-1β: real-time PCR of NFκB target genes; conditions: 50 μM, 10 ng/ml IL-1β
Experimental: as §1
Monolayer cell culture. […]
RNA Isolation and Real-Time PCR. […] Real-time PCR was carried out using a StepOnePlus™ Real-Time PCR System (Life Technologies, Grand Island, N.Y.). mRNA amounts for bovine primers were calculated using the ΔΔCt method. Relative mRNA quantities for goat primers were calculated using the Pfaffl method.

[3] = test system: unstimulated chondrocytes; test: Unstimulated (no IL-1β) chondrocytes in 3D PEGDA hydrogels: real-time PCR gene expression; conditions: 21 days
Experimental: as §1, §2, §4

[4] = test system: IL-1β-stimulated chondrocytes; test: IL-1β-stimulated chondrocytes in 3D PEGDA hydrogels: biochemical analysis (DNA, sGAG, collagen), histology, immunohistochemistry; conditions: 10 ng/ml IL-1β
Experimental: as §1, §2, §3
(§5) Biochemical Analysis. The constructs (n=3 for chondrocyte experiments and n=4 for chondrogenic experiments) were lyophilized for 48 hours and the dry weights measured. Constructs were then homogenized in 125 μg/ml papainase (Worthington Biochemical Corp., Lakewood, N.J.) and digested for 16 hours at 60° C. Quantification of DNA content was carried out using a Hoescht Dye 33342 DNA assay. Calf thymus DNA was used to generate standard curves. Quantification of sulfated glycosaminoglycans (sGAG), a molecule found in cartilage ECM, was carried out using a 1,9-dimethylmethylene blue (DMMB) dye assay; chondroitin sulfate was used to generate standard curves. Quantification of collagen was carried out via measuring hydroxyproline content after hydrolyzing in 6 N HCl overnight at 120° C. The reaction of hydroxyproline with chloramine-T and p-dimethylaminobenzaldehyde was performed as a measure of total collagen content; hydroxyproline was used to generate standard curves.
Histology and Immunohistochemistry. Constructs were fixed in 10% formalin or 4% paraformaldehyde followed by dehydration in increasing concentrations of ethanol, embedded in paraffin and sliced into 5 μm sections. After paraffin removal and subsequent rehydration, sections were stained for proteoglycans using Safranin-O and fast green or prepared for immunohistochemistry. For immunohistochemical staining of type II collagen, endogenous peroxidase was quenched using 3% (v/v) hydrogen peroxide in methanol. Sections were then incubated at 37° C. with 2.5% (w/v) hyaluronidase and stained using a Histostain-SP Kit (AEC, Broad Spectrum) (Life Technologies, Grand Island, N.Y.) following the manufacturer's instructions. […]

[5] = test system: unstimulated chondrocytes; test: Unstimulated (no IL-1β) chondrocytes in 3D PEGDA hydrogels: biochemical analysis and histology; conditions: for sGAG deposition / total collagen accumulation / type II collagen immunostaining: 21 days
Experimental: as §1, §2, §5
Histology and Immunohistochemistry. Constructs were fixed in 10% formalin or 4% paraformaldehyde followed by dehydration in increasing concentrations of ethanol, embedded in paraffin and sliced into 5 μm sections. After paraffin removal and subsequent rehydration, sections were stained for proteoglycans using Safranin-O and fast green or prepared for immunohistochemistry. For immunohistochemical staining of type II collagen, endogenous peroxidase was quenched using 3% (v/v) hydrogen peroxide in methanol. Sections were then incubated at 37° C. with 2.5% (w/v) hyaluronidase and stained using a Histostain-SP Kit (AEC, Broad Spectrum) (Life Technologies, Grand Island, N.Y.) following the manufacturer's instructions. Primary antibody for type II collagen (Fitzgerald Industries International, Acton, Mass.) was used at a dilution of 1:100 in 1% (w/v) BSA dissolved in PBS.

[6] = concentrations similar to increased ECM accumulation

SMILES: CCCC(=O)OC[C@H]1OC(O)[C@H](NC(C)=O)[C@@H](OC(=O)CCC)[C@@H]1OC(=O)CCC (stereo partly drawn) [GlcNAc-a, 3,4,6-O-Bu3GlcNAc]
- IκBα gene expression [1]: decreased
- MMP13, NFκB1 and IκBα expression levels relative to unstimulated chondrocytes [1]: near to that of unstimulated
- NFKB1 gene expression [1]: decreased
- aggrecan, type II collagen and type I collagen expression relative to unstimulated chondrocytes [1]: approached expression levels found in unstimulated chondrocytes
- MMP13 gene expression ([1]; 150 μM): further decrease
- aggrecan gene expression [1, 6]: increased
- type II collagen gene expression [1, 6]: increased
- MMP13 gene expression ([1]; higher concentrations (through 100 μM)): decrease
- type I collagen gene expression ([1]; intermediate concentrations): increased
- MMP13 gene expression ([1]; low concentrations / lowest dose): initial increase
- expression levels of IL-1β, IκBα and iNOS ([2]; 4 hours exposure): able to alter expression levels of some of the genes
- expression levels of NFκB target genes (IL-1β, MMP13, ADAMTS4, ADAMTS5, iNOS, PGES, NFκB1, IκBα) ([2]; 24 hours exposure, MMP9 is the exception): decreased the expression levels of all genes evaluated
- type I collagen gene expression [3]: concentration-dependent decrease
- MMP13 gene expression ([3]; after lowest dose through 100 μM): decrease
- IκBα and NFκB1 gene expression ([3]; except the highest concentrations): Neither of these genes changed
- IκBα and NFκB1 gene expression ([3]; highest concentrations studied): an increase was observed
- MMP13 gene expression ([3]; lowest dose): initial increase
- lowest concentration at which an increase in Safranin-O and type II collagen stains is observed ([4]; 21 days): 25 µM
- DNA content of cell-laden hydrogels (cell viability) ([4]; 21 days exposure, up to 150 μM): did not elicit a statistically significant difference
- type II collagen immunostaining, stain intensity versus no analog ([4]; 21 days, 25 μM and 150 μM): slight increase in stain intensity
- change in sGAG deposition compared to no exposure ([4]; 21 days, 50 μM): almost doubling
- increase in collagen accumulation compared to no exposure ([4]; 21 days, 50 μM and 100 μM): almost doubling
- total collagen accumulation normalized to DNA ([4]; 21 days, 50 μM and 100 μM): significant increase
- type II collagen immunostaining ([4]; 21 days, 50 μM and 100 μM): increase in type II collagen immunostaining
- sGAG accumulation normalized to DNA ([4]; 21 days, at 150 μM): decreased
- sGAG accumulation normalized to DNA ([4]; 21 days, concentrations up to 100 μM, versus no analog): increase in sGAG accumulation
- DNA content of cell-laden hydrogels (cell viability) ([5]; 21 days exposure): did not elicit a statistically significant difference
- sGAG deposition ([5]; 150 μM): a decrease was observed
- total collagen accumulation ([5]; above 50 μM): concentration dependent decrease
- type II collagen immunostaining ([5]; above 50 μM): dose-dependent decrease
- sGAG deposition ([5]; below 150 μM): did not have an effect
- total collagen accumulation ([5]; through 50 μM): maintained collagen accumulation
- type II collagen immunostaining ([5]; through 50 μM): no differences

Reference: patent publication US10227369B2, “Short-chain fatty acid hexosamine analogs and their use in tissue engineering applications” (THE JOHNS HOPKINS UNIVERSITY, priority 2013, dated 2019)
